Patent US4786633A, “Cephalosporin compounds” (Tanabe Seiyaku Co., Ltd., priority 1986, dated 1988)
Converted amounts (≈) assume the structure as drawn.

Key:
[1] = test system: Pseudomonas aeruginosa PI-67; test: Protective effects on bacterial infections in mice (Pseudomonas aeruginosa PI-67); assay type: in vivo; conditions: PI67, im, 168 h, intraperitoneal challenge, compound intramuscularly one hour after infection, survival 7 days after infection, probit analysis, read-out: ED50 (median effective dose)
Method: (§1) (Protective effects on bacterial infections in mice) Ten mice weighing 20±1 g were used for each dose level. Mice were challenged via the intraperitoneal route with sufficient bacteria to kill all non-treated mice within 24 hours. All bacteria were suspended in a physiological saline solution containing 6% mucin. A test compound was administered intramuscularly one hour after the infection. Survival ratios were determined 7 days after the infection. The median effective doses (ED50, mg/kg) of the test compound were estimated by the probit analysis.

[2] = test system: Staphylococcus aureus Smith; test: Protective effects on bacterial infections in mice (Staphylococcus aureus Smith); assay type: in vivo; conditions: im, 168 h, intraperitoneal challenge, compound intramuscularly one hour after infection, survival 7 days after infection, probit analysis, read-out: ED50 (median effective dose)
Method: as §1

[3] = test system: Pseudomonas aeruginosa PI-67; test: Antimicrobial activity in vitro (MIC, standard agar plate dilution method); assay type: cell-based; conditions: PI67, Mueller-Hinton agar, read-out: M.I.C. (minimum inhibitory concentration)
Method: (§2) (Antimicrobial activity in vitro)
(§3) The minimum inhibitory concentration (MIC, μg/ml) of a test compound was determined by means of a standard agar plate dilution method (based on the standard method of Japan Society of Chemotherapy). Media used in the experiment were Mueller-Hinton agar (MHA; product of Nissui).

[4] = test system: Staphylococcus aureus Smith; test: as above; assay type: cell-based; conditions: Mueller-Hinton agar, read-out: M.I.C. (minimum inhibitory concentration)
Method: as §2, §3

| MIC [3] | MIC [4] | SMILES | ED50 [1] | ED50 [2] |
| --- | --- | --- | --- | --- |
| 3.13 µg/mL (≈ 5.08 µM) | 1.56 µg/mL (≈ 2.53 µM) | C=CC[n+]1ccccc1SCC1=C(C(=O)[O-])N2C(=O)C(NC(=O)/C(=N\O[C@H]3CCNC3=O)c3csc(N)n3)C2SC1 (stereo partly drawn) [Test Compound 3, 7β-{(Z)-2-(2-aminothiazol-4-yl)-2-[((3S)-2-oxopyrrolidin-3-yl)oxyimino]acetamido}-3-(1-allyl-2-pyridinio)thiomethyl-3-cephem-4-carboxylate] | 10.8 mg/kg | 0.4 mg/kg |
| 0.78 µg/mL (≈ 1.32 µM) | 0.78 µg/mL (≈ 1.32 µM) | C[n+]1ccc(SCC2=C(C(=O)[O-])N3C(=O)C(NC(=O)/C(=N\O[C@H]4CCNC4=O)c4csc(N)n4)C3SC2)cc1 (stereo partly drawn) [Test Compound 1, 7β-{(Z)-2-(2-aminothiazol-4-yl)-2-[((3S)-2-oxopyrrolidin-3-yl)oxyimino]acetamido}-3-(1-methyl-4-pyridinio)thiomethyl-3-cephem-4-carboxylate] | 12.3 mg/kg | 0.14 mg/kg |
| 1.56 µg/mL (≈ 2.65 µM) | 0.78 µg/mL (≈ 1.32 µM) | C[n+]1ccccc1SCC1=C(C(=O)[O-])N2C(=O)C(NC(=O)/C(=N\O[C@H]3CCNC3=O)c3csc(N)n3)C2SC1 (stereo partly drawn) [Test Compound 2, 7β-{(Z)-2-(2-aminothiazol-4-yl)-2-[((3S)-2-oxopyrrolidin-3-yl)oxyimino]acetamido}-3-(1-methyl-2-pyridinio)thiomethyl-3-cephem-4-carboxylate] | 15.8 mg/kg | 0.25 mg/kg |
